{
  "source": "patent US20130261077A1",
  "about": "(priority 2012, published 2013)",
  "data": [
    {"target": "T1, FimH-CRD (Escherichia coli, UniProt P08191)", "T1 construct": "The first 177 amino acids of the FimH protein; thrombin tag (printed as 'fusion protein with thrombin') (cleaved yes); made in house; host or cells: bacteria (pET21b plasmid)", "T1 sequence (P08191 22-177)": "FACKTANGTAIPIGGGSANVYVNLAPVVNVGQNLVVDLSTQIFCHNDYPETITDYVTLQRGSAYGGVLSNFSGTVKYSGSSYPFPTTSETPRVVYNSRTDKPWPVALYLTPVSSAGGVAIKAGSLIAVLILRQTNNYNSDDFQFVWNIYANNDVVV", "assay": "Competitive binding assay by fluorescence polarization, assay 2 (compounds prepared by robotics, plates frozen and thawed)", "experimental": "The first 177 amino acids of the FimH protein were expressed as a fusion protein with thrombin in a pET21b plasmid in bacteria. This FimH protein sequence contains the carbohydrate recognition domain (CRD) and shall be termed FimH-CRD. Following bacterial expression of the protein, the FimH-CRD protein was purified to homogeneity and the thrombin tag removed by protease cleavage. A competitive binding assay by fluorescence polarization was performed using 5 nM of the Alexa 647 mannoside probe and 60 nM of the FimH-CRD. The samples are assayed in a low volume 384 well microtiter plate in a final volume of 20 μl. The final assay buffer conditions are the following, 50 mM Tris-Cl, ph 7.0, 100 mM NaCl, 1 mM EDTA, 5 mM β-mercaptoethanol, 0.05% BSA and 2.5% DMSO. Two assays are performed for FimH, termed assay 1 or assay 2. The assay conditions are the same for both assays except the following: assay 1 has compounds prepared by manual dilution in a serial dilution factor with 12-point dose response while assay 2 has compounds prepared by a robotics system also through a serial dilution factor (12 point dose response) and initially prepared in duplicate in 384 well-Corning polypropylene round bottom plates. The assay 2 plates have compound which is then frozen and must be thawed prior to use. Initially the Alexa 647 probe and the FimH-CRD are added to the assay buffer and then 0.5 μl of test compound (assay 1 or 2) between 0.4 nM to 75 μM final concentration are added (12 point titration with 3-fold serial dilution). Control wells for the Alexa 647 probe are prepared with the same conditions except for the addition of the FimH-CRD protein. Plates are then incubated for 5 hrs at room temperature in the dark and under humid conditions to prevent drying. Plates are read using the SpectraMax Paradigm multi-mode plate reader and the appropriate fluorescent polarization detection cartridge (Alexa-647).\nAlexa 647 mannoside probe is prepared using the similar procedure reported for FAM mannoside (Han, Z. et. al., 2010, J. Med. Chem., 53, 4779) and is described in the scheme below.\nTo a blue colored stirred solution of (2S,3S,4S,5S,6R)-2-(4-aminobutoxy)-6-(hydroxymethyl)tetrahydropyran-3,4,5-triol (2.21 mg, 0.009 mmol) and the (2E)-2-[(2E,4E)-5-[3,3-dimethyl-5-sulfonato-1-(3-sulfonatopropyl)indol-1-ium-2-yl]penta-2,4-dienylidene]-3-[6-(2,5-dioxopyrrolidin-1-yl)oxy-6-oxo-hexyl]-3-methyl-1-(3-sulfonatopropyl)indoline-5-sulfonate (Potassium Ion (3)) (4.9 mg, 0.0044 mmol) in DMF (44 μL) is added Et3N (5.4 mg, 7.0 μL, 0.053 mmol) at RT. The solution is stirred at room temperature over night, concentrated, dissolved in water and purified on 12 g C-18 silica gel cartridge on Isolera system using acetonitrile in water (0 to 40%, 10 CV) and followed by lyophilization to afford Alexa 647 mannoside probe (3.3 mg, 34%) as deep blue solid.\nThe Kd values of the compounds are determined from dose response curves using twelve concentrations per compound in duplicate. Curves are fitted to data points using Fluorescence Polarization competitive displacement analysis, and Kds are interpolated from the resulting curves using GraphPad Prism software, version […] (GraphPad software Inc., San Diego, Calif., USA).", "units": {"Kd": "nM"}, "values": [
      {"smiles": "CC(C)(C)OC(=O)NCc1nnc(-c2ccc(-c3cccc([C@H]4O[C@H](CO)[C@@H](O)[C@H](O)[C@@H]4O)c3)cc2)o1", "note": "[Compound 115, tert-Butyl N-[[5-[4-[3-[(2R,3S,4R,5S,6R)-3,4,5-trihydroxy-6-(hydroxymethyl)tetrahydropyran-2-yl]phenyl]phenyl]-1,3,4-oxadiazol-2-yl]methyl]carbamate]", "Kd": "24.2 ± 2.9"},
      {"smiles": "Cc1cnc(-c2ccc(-c3cccc([C@H]4O[C@H](CO)[C@@H](O)[C@H](O)[C@@H]4O)c3)cc2)o1", "note": "[Compound 117, (2R,3S,4R,5S,6R)-2-(hydroxymethyl)-6-[3-[4-(5-methyloxazol-2-yl)phenyl]phenyl]tetrahydropyran-3,4,5-triol]", "Kd": "20.9 ± 6.7"},
      {"smiles": "CC(C)c1nnc(-c2ccc(-c3cccc([C@H]4O[C@H](CO)[C@@H](O)[C@H](O)[C@@H]4O)c3)cc2)o1", "note": "[Compound 118, (2R,3S,4R,5S,6R)-2-(hydroxymethyl)-6-[3-[4-(5-isopropyl-1,3,4-oxadiazol-2-yl)phenyl]phenyl]tetrahydropyran-3,4,5-triol]", "Kd": "13.1 ± 0.2"},
      {"smiles": "OC[C@H]1O[C@H](c2cccc(-c3ccc(-c4cnco4)cc3)c2)[C@@H](O)[C@@H](O)[C@@H]1O", "note": "[Compound 119, (2R,3S,4R,5S,6R)-2-(hydroxymethyl)-6-[3-(4-oxazol-5-ylphenyl)phenyl]tetrahydropyran-3,4,5-triol]", "Kd": "19.5 ± 8.8"},
      {"smiles": "OC[C@H]1O[C@H](c2cccc(-c3ccc(-c4nnc(-c5ccccn5)o4)cc3)c2)[C@@H](O)[C@@H](O)[C@@H]1O", "note": "[Compound 120, (2R,3S,4R,5S,6R)-2-(hydroxymethyl)-6-[3-[4-[5-(2-pyridyl)-1,3,4-oxadiazol-2-yl]phenyl]phenyl]tetrahydropyran-3,4,5-triol]", "Kd": "12.8 ± 2.1"},
      {"smiles": "Cc1ccc(-c2nnc(-c3ccc(-c4cccc([C@H]5O[C@H](CO)[C@@H](O)[C@H](O)[C@@H]5O)c4)cc3)o2)o1", "note": "[Compound 121, (2R,3S,4R,5S,6R)-2-(hydroxymethyl)-6-[3-[4-[5-(5-methyl-2-furyl)-1,3,4-oxadiazol-2-yl]phenyl]phenyl]tetrahydropyran-3,4,5-triol]", "Kd": "13.1 ± 0.9"},
      {"smiles": "Cn1ccc(-c2ccc(-c3cccc([C@H]4O[C@H](CO)[C@@H](O)[C@H](O)[C@@H]4O)c3)cc2)n1", "note": "[Compound 122, (2R,3S,4R,5S,6R)-2-(hydroxymethyl)-6-[3-[4-(1-methylpyrazol-3-yl)phenyl]phenyl]tetrahydropyran-3,4,5-triol]", "Kd": "27.6 ± 7.4"},
      {"smiles": "Cc1nnc(-c2cccc(-c3cccc([C@H]4O[C@H](CO)[C@@H](O)[C@H](O)[C@@H]4O)c3)c2)o1", "note": "[Compound 123, (2R,3S,4R,5S,6R)-2-(hydroxymethyl)-6-[3-[3-(5-methyl-1,3,4-oxadiazol-2-yl)phenyl]phenyl]tetrahydropyran-3,4,5-triol]", "Kd": "37.1 ± 8.5"},
      {"smiles": "Cn1nccc1-c1ccc(-c2cccc([C@H]3O[C@H](CO)[C@@H](O)[C@H](O)[C@@H]3O)c2)cc1", "note": "[Compound 124, (2R,3S,4R,5S,6R)-2-(hydroxymethyl)-6-[3-[4-(2-methylpyrazol-3-yl)phenyl]phenyl]tetrahydropyran-3,4,5-triol]", "Kd": "16.2 ± 2"},
      {"smiles": "Cc1nnc(-c2ccc(-c3cccc([C@H]4O[C@H](CO)[C@@H](O)[C@H](O)[C@@H]4O)c3)c(C)c2)o1", "note": "[Compound 125, (2R,3S,4R,5S,6R)-2-(hydroxymethyl)-6-[3-[2-methyl-4-(5-methyl-1,3,4-oxadiazol-2-yl)phenyl]phenyl]tetrahydropyran-3,4,5-triol]", "Kd": "13.9 ± 2.6"},
      {"smiles": "COc1cc(-c2cccc([C@H]3O[C@H](CO)[C@@H](O)[C@H](O)[C@@H]3O)c2)ccc1-c1nnc(C)o1", "note": "[Compound 127, (2R,3S,4R,5S,6R)-2-(hydroxymethyl)-6-[3-[3-methoxy-4-(5-methyl-1,3,4-oxadiazol-2-yl)phenyl]phenyl]tetrahydropyran-3,4,5-triol]", "Kd": "17.4 ± 4.8"},
      {"smiles": "COc1cc(-c2nnc(C)o2)ccc1-c1cccc([C@H]2O[C@H](CO)[C@@H](O)[C@H](O)[C@@H]2O)c1", "note": "[Compound 128, (2R,3S,4R,5S,6R)-2-(hydroxymethyl)-6-[3-[2-methoxy-4-(5-methyl-1,3,4-oxadiazol-2-yl)phenyl]phenyl]tetrahydropyran-3,4,5-triol]", "Kd": "74.7 ± 60.4"},
      {"smiles": "Cc1nnc(-c2ccc(-c3ccc([C@H]4O[C@H](CO)[C@@H](O)[C@H](O)[C@@H]4O)cc3)cc2)o1", "note": "[Compound 129, (2R,3S,4R,5S,6R)-2-(hydroxymethyl)-6-[4-[4-(5-methyl-1,3,4-oxadiazol-2-yl)phenyl]phenyl]tetrahydropyran-3,4,5-triol]", "Kd": "22.9 ± 5.4"},
      {"smiles": "CNC(=O)c1cc(/C=C\\c2cccc([C@H]3O[C@H](CO)[C@@H](O)[C@H](O)[C@@H]3O)c2)cc(C(=O)NC)c1", "note": "[Compound 135]", "Kd": "22.3 ± 9.8"},
      {"smiles": "CNC(=O)c1cc(/C=C/c2cccc([C@H]3O[C@H](CO)[C@@H](O)[C@H](O)[C@@H]3O)c2)cc(C(=O)NC)c1", "note": "[Compound 136]", "Kd": "19.2 ± 3.6"},
      {"smiles": "OC[C@H]1O[C@H](c2cccc(/C=C\\c3cc(Cl)cc(Cl)c3)c2)[C@@H](O)[C@@H](O)[C@@H]1O", "note": "[Compound 137, (2R,3S,4R,5S,6R)-2-[3-[(Z)-2-(3,5-dichlorophenyl)vinyl]phenyl]-6-(hydroxymethyl)tetrahydropyran-3,4,5-triol]", "Kd": "29.9 ± 15.2"},
      {"smiles": "OC[C@H]1O[C@H](c2cccc(/C=C/c3cc(Cl)cc(Cl)c3)c2)[C@@H](O)[C@@H](O)[C@@H]1O", "note": "[Compound 138, (2R,3S,4R,5S,6R)-2-[3-[(E)-2-(3,5-dichlorophenyl)vinyl]phenyl]-6-(hydroxymethyl)tetrahydropyran-3,4,5-triol]", "Kd": "32.9 ± 6.3"},
      {"smiles": "OC[C@H]1O[C@H](c2cccc(/C=C/c3ccccc3)c2)[C@@H](O)[C@@H](O)[C@@H]1O", "note": "[Compound 140, (2R,3S,4R,5S,6R)-2-(hydroxymethyl)-6-[3-[(E)-styryl]phenyl]tetrahydropyran-3,4,5-triol]", "Kd": "15.3 ± 3.5"},
      {"smiles": "CNC(=O)c1ccc(-c2cccc([C@H]3O[C@H](CO)[C@@H](O)[C@H](O)[C@@H]3O)c2)cc1-n1cncn1", "note": "[Compound 141, N-methyl-2-(1,2,4-triazol-1-yl)-4-[3-[(2R,3S,4R,5S,6R)-3,4,5-trihydroxy-6-(hydroxymethyl)tetrahydropyran-2-yl]phenyl]benzamide]", "Kd": "56.2 ± 20"},
      {"smiles": "COCc1cc(-c2cccc([C@H]3O[C@H](CO)[C@@H](O)[C@H](O)[C@@H]3O)c2)ccc1-c1nnc(C)o1", "note": "[Compound 142, (2R,3S,4R,5S,6R)-2-(hydroxymethyl)-6-[3-[3-(methoxymethyl)-4-(5-methyl-1,3,4-oxadiazol-2-yl)phenyl]phenyl]tetrahydropyran-3,4,5-triol]", "Kd": "14.8 ± 5.9"},
      {"smiles": "Cc1nnc(-c2ccc(-c3cccc([C@H]4O[C@H](CO)[C@@H](O)[C@H](O)[C@@H]4O)c3)cc2O)o1", "note": "[Compound 143, (2R,3S,4R,5S,6R)-2-(hydroxymethyl)-6-[3-[3-hydroxy-4-(5-methyl-1,3,4-oxadiazol-2-yl)phenyl]phenyl]tetrahydropyran-3,4,5-triol]", "Kd": "11.2 ± 1"},
      {"smiles": "COC(=O)c1ccc2nc(-c3cccc([C@H]4O[C@H](CO)[C@@H](O)[C@H](O)[C@@H]4O)c3)ccc2c1", "note": "[Compound 144, Methyl 2-[3-[(2R,3S,4R,5S,6R)-3,4,5-trihydroxy-6-(hydroxymethyl)tetrahydropyran-2-yl]phenyl]quinoline-6-carboxylate]", "Kd": "18.3 ± 7.5"},
      {"smiles": "CNC(=O)c1ccc2nc(-c3cccc([C@H]4O[C@H](CO)[C@@H](O)[C@H](O)[C@@H]4O)c3)ccc2c1", "note": "[Compound 145, N-Methyl 2-[3-[(2R,3S,4R,5S,6R)-3,4,5-trihydroxy-6-(hydroxymethyl)tetrahydropyran-2-yl]phenyl]quinoline-6-carboxylate]", "Kd": "22.4 ± 4.7"},
      {"smiles": "OCc1nc2cc(-c3cccc([C@H]4O[C@H](CO)[C@@H](O)[C@H](O)[C@@H]4O)c3)ccc2[nH]1", "note": "[Compound 146, (2R,3S,4R,5S,6R)-2-(Hydroxymethyl)-6-[3-[2-(hydroxymethyl)-1H-benzimidazol-5-yl]phenyl]tetrahydropyran-3,4,5-triol]", "Kd": "27.8 ± 10.8"}
    ]}
  ]
}
